Like-named read-outs stand apart in the source and are kept apart here.
Assays:
[1] = test system: B. cinerea on cherry tomatoes; assay: In vivo antifungal bioassay on cherry tomatoes; set-up: species or system Botrytis cinerea; conditions: 20 mg/L; for Diameter of infection (cm) 4 days: 4 days after treatment; for Diameter of infection (cm) 7 days: 7 days after treatment
[2] = test system: Alternaria solani (A. solani); assay: In vitro fungicidal activity, mycelial (hyphae) growth inhibition on PDA; type: cell-based
[3] = Solubility of saturated solutions by HPLC at 25 °C; type: physicochemical; conditions: for solubility at 15 min: thermodynamic from solid
Excerpt: The filtrate was then passed through a 0.22 μm nylon membrane filter and subjected to HPLC analysis. Based on Wang’s report about the chromatographic parameters, modifications to the mobile phase ratio were made. The replicability of the results was ensured by performing each measurement in triplicate.

[4] = test system: Botrytis cinerea (B. cinerea); assay: In vitro fungicidal activity, mycelial (hyphae) growth inhibition on PDA; type: cell-based
[5] = Surface tension of saturated aqueous solutions, Du Noüy ring method; conditions: 25 °C
Protocol: This method involved adjusting the stage positioning of the solvent container such that a platinum ring could be immersed below the liquid interface or pulled through the meniscus. […] The maximum force was recorded as the surface tension of the solvent. To ensure accuracy, the platinum ring was thoroughly cleaned between each measurement through rinsing with double-distilled water and wiping it dry. The surface tension determination was performed in quadruplicate.

[6] = test system: Pyricularia oryzae (P. oryzae); assay: microbe, parasite or virus in culture; type: cell-based; conditions: for Inhibition Rate at 50 mg/L (%) P. o: mean ± SD of three replicates
[7] = test system: Rhizoctonia solani (R. solani); assay: microbe, parasite or virus in culture; type: cell-based
[8] = test system: Fusarium graminearum (F. graminearum); assay: microbe, parasite or virus in culture; type: cell-based; conditions: for Inhibition Rate at 50 mg/L (%) F. g: mean ± SD of three replicates
[9] = test system: Pythium aphanidermatum (P. aphanidermatum); assay: In vitro fungicidal activity, mycelial (hyphae) growth inhibition on PDA; type: cell-based
[10] = Solubility classification in representative solvents (Vogel protocol); type: physicochemical; conditions: 25 °C, test amount 0.1 g; for solubility: thermodynamic from solid
Protocol: This investigation details how to determine the solubility of terbinafine and its salts, guided by the experimental protocol in Vogel’s Textbook of Practical Organic Chemistry. Based on the Snyder polarity index values of the representative solvents, each solvent was tested for its ability to dissolve the target analytes. The solubility data was classified into three categories based on the observed extent of dissolution. […] The experimental procedures were performed at 25 °C and under ambient pressure.

[11] = test system: Phomopsis capsici (P. capsica); assay: In vitro fungicidal activity, mycelial (hyphae) growth inhibition on PDA; type: cell-based
Valsa malicola (V. mali) = assay: as above; type: cell-based

COC(=O)Nc1nc2ccccc2[nH]1 [Carbendazim, reference compound]
Diameter of infection (cm) 4 days [1]: 0.85 cm
Diameter of infection (cm) 7 days [1]: 0.92 cm

CN(C/C=C/C#CC(C)(C)C)Cc1cccc2ccccc12.O=C(O)c1ccccc1O [TIS 1, (E)-N,6,6-trimethyl-N-(naphthalen-1-ylmethyl)hept-2-en-4-yn-1-aminium 2-hydroxybenzoate]
Inhibition Rate at 50 mg/L (%) A. s [2]: 100 ± 0%
EC50 ([2]; Alternaria solani): 0.13 µg/mL
EC50 ([2]; read-out: EC50 (μmol/L)): 0.3 µmol/L
solubility at 15 min ([3]; isopropanol, organic solvent or mixture, Table S1, read-out: Solubility, Isopropanol): 5.18 µM
solubility at 15 min ([3]; n-hexane, organic solvent or mixture, Table S1, read-out: Solubility, n-Hexane): 0.502 µM
solubility at 15 min ([3]; water, Table S1, read-out: Solubility, Water): 284 µM
Inhibition Rate at 50 mg/L (%) B. c [4]: 100 ± 0%
EC50 ([4]; Botrytis cinerea): 0.14 µg/mL
EC50 ([4]; read-out: EC50 (μmol/L)): 0.32 µmol/L
surface tension of the saturated aqueous solution [5]: 58.33 mN·m^−1
Inhibition Rate at 50 mg/L (%) P. o [6]: 99.05 ± 0.21%
EC50 ([6]; Pyricularia oryzae, P. oryzae): 0.47 µg/mL
EC50 ([6]; read-out: EC50 (μmol/L), P. oryzae): 1.1 µmol/L
Inhibition Rate at 50 mg/L (%) R. s [7]: 84.79 ± 1.25%
EC50 ([7]; Rhizoctonia solani): 2.49 µg/mL
EC50 ([7]; read-out: EC50 (μmol/L)): 5.81 µmol/L
Inhibition Rate at 50 mg/L (%) F. g [8]: 100 ± 0%
EC50 ([8]; Fusarium graminearum, F. graminearum): 0.1 µg/mL
EC50 ([8]; read-out: EC50 (μmol/L), F. graminearum): 0.23 µmol/L
inhibition at 50 µg/mL ([9]; Pythium aphanidermatum, 50 mg/L, read-out: Inhibition Rate at 50 mg/L (%) P. a): 74.61 ± 0.38%
solubility ([10]; DMSO, organic solvent or mixture, Snyder polarity index 6.5, read-out: Solubility in DMSO): > 100 mg/mL
solubility ([10]; acetone, organic solvent or mixture, Snyder polarity index 5.1, read-out: Solubility in Acetone): > 100 mg/mL
solubility ([10]; acetonitrile, organic solvent or mixture, Snyder polarity index 6.2, read-out: Solubility in Acetonitrile): > 100 mg/mL
solubility ([10]; chloroform, organic solvent or mixture, Snyder polarity index 4.1, read-out: Solubility in Chloroform): > 100 mg/mL
solubility ([10]; ethyl acetate, organic solvent or mixture, Snyder polarity index 4.3, read-out: Solubility in Ethyl acetate): > 100 mg/mL
solubility ([10]; isopropanol, organic solvent or mixture, read-out: Solubility in Isopropanol): < 33.3 mg/mL
solubility ([10]; methanol, organic solvent or mixture, Snyder polarity index 6.6, read-out: Solubility in Methanol): > 100 mg/mL
solubility ([10]; n-hexane, organic solvent or mixture, Snyder polarity index 0.0, read-out: Solubility in n-Hexane): < 33.3 mg/mL
solubility ([10]; toluene, organic solvent or mixture, Snyder polarity index 2.3, read-out: Solubility in Toluene): > 100 mg/mL
solubility ([10]; water, Snyder polarity index 9.0, read-out: Solubility in Water): < 33.3 mg/mL
Diameter of infection (cm) 4 days [1]: 0.78 cm
Diameter of infection (cm) 7 days [1]: 1.10 cm
inhibition at 50 µg/mL ([11]; Diaporthe capsici, 50 mg/L, read-out: Inhibition Rate at 50 mg/L (%) P. c): 47 ± 1.18%
EC50 (Valsa malicola (V. mali)): 2.24 µg/mL
Inhibition Rate at 50 mg/L (%) V. m (Valsa malicola (V. mali)): 100 ± 0%
EC50 (Valsa malicola (V. mali); read-out: EC50 (μmol/L)): 5.21 µmol/L

CN(C/C=C/C#CC(C)(C)C)Cc1cccc2ccccc12.O=C(O)C1C(C(=O)O)[C@@]2(Cl)C(Cl)=C(Cl)[C@]1(Cl)C2(Cl)Cl [TIS 2, (E)-N,6,6-trimethyl-N-(naphthalen-1-ylmethyl)hept-2-en-4-yn-1-aminium (1S,4R)-3-carboxy-1,4,5,6,7,7-hexachlorobicyclo [2.2.1]hept-5-ene-2-carboxylate]
Inhibition Rate at 50 mg/L (%) A. s ([2]; mean ± SD of three replicates): 98.8 ± 0%
EC50 (mg/L) ([2]; A. solani): 0.18 mg/L
EC50 ([2]; A. solani, read-out: EC50 (μmol/L)): 0.27 µmol/L
Solubility, Acetone ([3]; Table S1): 8.23 µM
Solubility, Acetonitrile ([3]; Table S1): 0.155 µM
Solubility, Chloroform ([3]; Table S1): 1.39 µM
Solubility, Ethyl acetate ([3]; Table S1): 0.456 µM
Solubility, Isopropanol ([3]; Table S1): 0.0703 µM
Solubility, Methanol ([3]; Table S1): 0.0554 µM
Solubility, Toluene ([3]; Table S1): 0.366 µM
Solubility, Water ([3]; Table S1): 5.62 µM
Solubility, n-Hexane ([3]; Table S1): 0.0221 µM
Inhibition Rate at 50 mg/L (%) B. c ([4]; mean ± SD of three replicates): 100 ± 0%
EC50 (mg/L) ([4]; B. cinerea): 0.25 mg/L
EC50 ([4]; B. cinerea, read-out: EC50 (μmol/L)): 0.37 µmol/L
surface tension of the saturated aqueous solution [5]: 62.78 mN·m^−1
Inhibition Rate at 50 mg/L (%) P. o [6]: 96.09 ± 0.36%
EC50 (mg/L) ([6]; P. oryzae): 0.88 mg/L
EC50 ([6]; P. oryzae, read-out: EC50): 1.29 µmol/L
EC50 (mg/L) [7]: 3.32 mg/L
Inhibition Rate at 50 mg/L (%) R. s [7]: 80.75 ± 0.72%
EC50 ([7]; read-out: EC50): 4.88 µmol/L
Inhibition Rate at 50 mg/L (%) F. g [8]: 100 ± 0%
EC50 (mg/L) ([8]; F. graminearum): 0.16 mg/L
EC50 ([8]; F. graminearum, read-out: EC50): 0.24 µmol/L
Inhibition Rate at 50 mg/L (%) P. a ([9]; mean ± SD of three replicates): 69.65 ± 1.7%
Solubility in n-Hexane ([10]; Snyder polarity index 0.0): − (“−” means insoluble in a 3 mL solvent, poor solubility)
Solubility in Toluene ([10]; Snyder polarity index 2.3): − (“−” means insoluble in a 3 mL solvent, poor solubility)
Solubility in Chloroform ([10]; Snyder polarity index 4.1): − (“−” means insoluble in a 3 mL solvent, poor solubility)
Solubility in Ethyl acetate ([10]; Snyder polarity index 4.3): − (“−” means insoluble in a 3 mL solvent, poor solubility)
Solubility in Isopropanol ([10]; Snyder polarity index 4.3): − (“−” means insoluble in a 3 mL solvent, poor solubility)
Solubility in Acetone ([10]; Snyder polarity index 5.1): − (“−” means insoluble in a 3 mL solvent, poor solubility)
Solubility in Acetonitrile ([10]; Snyder polarity index 6.2): − (“−” means insoluble in a 3 mL solvent, poor solubility)
Solubility in DMSO ([10]; Snyder polarity index 6.5): + (“+” means soluble in a 1 mL solvent, good solubility)
Solubility in Methanol ([10]; Snyder polarity index 6.6): − (“−” means insoluble in a 3 mL solvent, poor solubility)
Solubility in Water ([10]; Snyder polarity index 9.0): − (“−” means insoluble in a 3 mL solvent, poor solubility)
Inhibition Rate at 50 mg/L (%) P. c ([11]; mean ± SD of three replicates): 43.85 ± 1.61%
Inhibition Rate at 50 mg/L (%) V. m (Valsa malicola (V. mali); mean ± SD of three replicates): 100 ± 0%
EC50 (mg/L) (Valsa malicola (V. mali); V. mali): 4.28 mg/L
EC50 (Valsa malicola (V. mali); V. mali, read-out: EC50 (μmol/L)): 6.29 µmol/L

— article PMC10303384, “The Effect of Terbinafine and Its Ionic Salts on Certain Fungal Plant Pathogens” (Molecules, 2023)
